Reference: patent US6825185B2, “Substituted aryl compounds as novel cyclooxygenase-2 selective inhibitors, compositions and methods of use” (NitroMed, Inc., priority 2000, dated 2004)

Tests used:
COX-2 = molecular target: T1, COX-2 (Homo sapiens, UniProt P35354); experiment: COX-2 enzyme activity in human whole blood (LPS induced, thromboxane B2 EIA); format: cell-based; parameters: Human blood (≈50 mL) from male or female donors who had not received any aspirin or NSAIDs for 14 days; endogenous in cells; host or cells: human whole blood from donors, LPS-induced; conditions: test compound at 10 μM
T1 sequence (P35354 18-604): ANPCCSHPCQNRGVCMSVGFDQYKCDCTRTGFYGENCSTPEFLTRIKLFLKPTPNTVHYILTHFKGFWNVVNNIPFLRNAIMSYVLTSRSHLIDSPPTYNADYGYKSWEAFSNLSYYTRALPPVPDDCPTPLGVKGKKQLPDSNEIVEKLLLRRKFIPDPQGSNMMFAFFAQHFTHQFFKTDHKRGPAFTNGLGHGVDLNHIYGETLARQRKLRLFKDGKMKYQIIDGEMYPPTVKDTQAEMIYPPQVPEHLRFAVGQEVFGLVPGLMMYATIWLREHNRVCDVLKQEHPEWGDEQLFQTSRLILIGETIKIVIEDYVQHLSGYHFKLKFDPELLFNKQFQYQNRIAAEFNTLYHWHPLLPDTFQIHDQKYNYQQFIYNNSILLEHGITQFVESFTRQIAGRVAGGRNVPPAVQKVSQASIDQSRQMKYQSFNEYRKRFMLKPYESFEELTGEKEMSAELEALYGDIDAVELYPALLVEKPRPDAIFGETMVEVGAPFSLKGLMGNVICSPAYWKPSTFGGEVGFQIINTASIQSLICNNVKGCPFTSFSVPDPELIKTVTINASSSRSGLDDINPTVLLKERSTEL
Procedure: (§1) Human blood (≈50 mL) from male or female donors who had not received any aspirin or NSAIDs for 14 days was collected at two local area blood donor centers and placed in polypropylene syringes containing sodium heparin (20 units per mL blood, final concentration). The blood was transported to the laboratory on ice packs and used within 1.5 hours of collection. Upon receipt in the laboratory, the blood was allowed to come to room temperature for 15 minutes prior to distribution in 1 mL aliquots per well of 24 well tissue culture plates. The plates were then placed on a gently rotating platform shaker in a 5% CO2 incubator at 37° C. for 15 minutes. Test compounds were dissolved in DMSO, at 1000 fold the final desired concentration, and further diluted, as indicated, in DMSO. One μL of each dilution of the test compound was added per well, in duplicate wells; wells not receiving test compound (e.g., basal, background or control wells) received 1 μL DMSO.
To induce COX-2, lipopolysaccharide (LPS) from E. coli (LPS, serotype 026:B6 or serotype 0127:B8, Sigma Chemical Co., St. Louis, Mo., Catalogue No. L3755 or L3129, respectively) was added at 10 μg/mL (2 μL of 5 mg/mL LPS in DMSO) to appropriate wells 15 minutes after the addition of the test compound. […] (Again, basal, background or control wells not stimulated with A23187 received 1 μL of DMSO.) At 5 hours after the addition of the test compound, all incubations were terminated by placement on ice and the addition of 2 mM EGTA (100 μL of 20 mM EGTA, tetrasodium, in PBS (phosphate buffered saline) without Ca^++ and Mg^++, pH 7.2)). The resulting solutions, were transferred by polyethylene transfer pipettes to 15 mL polypropylene centrifuge tubes and centrifuged at 1200 g for 10 minutes at 4° C. One hundred μL of plasma was removed from each blood sample and added to 1 mL of methanol in new 15 mL polypropylene centrifuge tubes, vortexed, and stored overnight at −20° C. The next day, the samples were centrifuged at 2000 g for 10 minutes at 4° C. and the supernatants transferred to glass tubes and evaporated to dryness.

COX-1 = COX-1 (Homo sapiens, UniProt P23219); experiment: COX-1 enzyme activity in human whole blood (A23187 stimulated, thromboxane B2 EIA); format: cell-based; parameters: Human blood (≈50 mL) from male or female donors who had not received any aspirin or NSAIDs for 14 days; endogenous in cells; host or cells: human whole blood from donors; conditions: for COX-1 Inhibition (% at 100 μM): test compound at 100 μM
Procedure: as §1, with “The assay for COX-1 and COX-2 enzyme activity, in the human whole blood was performed as described in Brideau et al., Inflamm Res., 45: 68-74 (1996)). Human” for “Human”
To induce COX-2, lipopolysaccharide (LPS) from E. coli (LPS, serotype 026:B6 or serotype 0127:B8, Sigma Chemical Co., St. Louis, Mo., Catalogue No. L3755 or L3129, respectively) was added at 10 μg/mL (2 μL of 5 mg/mL LPS in DMSO) to appropriate wells 15 minutes after the addition of the test compound. (Basal or background wells not incubated with LPS received 2 μL of DMSO.) For the stimulation of COX-1, the calcium ionophore, A23187 (free acid from Sigma Chemical Co., St. Louis, Mo., Catalogue No. C7522) was added at 25 μM (1 μL of 25 mM stock in DMSO) to separate wells 4.5 hours after the addition of the test compound. (Again, basal, background or control wells not stimulated with A23187 received 1 μL of DMSO.) At 5 hours after the addition of the test compound, all incubations were terminated by placement on ice and the addition of 2 mM EGTA (100 μL of 20 mM EGTA, tetrasodium, in PBS (phosphate buffered saline) without Ca^++ and Mg^++, pH 7.2)). The resulting solutions, were transferred by polyethylene transfer pipettes to 15 mL polypropylene centrifuge tubes and centrifuged at 1200 g for 10 minutes at 4° C. One hundred μL of plasma was removed from each blood sample and added to 1 mL of methanol in new 15 mL polypropylene centrifuge tubes, vortexed, and stored overnight at −20° C. The next day, the samples were centrifuged at 2000 g for 10 minutes at 4° C. and the supernatants transferred to glass tubes and evaporated to dryness. The samples were assayed for thromboxane B2 using EIA kits supplied by Cayman Chemical Co. (Ann Arbor, Mich., Catalogue No. 519031) in duplicate wells after reconstitution with EIA Buffer and appropriate dilution (2000 fold for COX-1 and 500 fold for Cox-2 samples).

COX-1, sequence (P23219 24-599): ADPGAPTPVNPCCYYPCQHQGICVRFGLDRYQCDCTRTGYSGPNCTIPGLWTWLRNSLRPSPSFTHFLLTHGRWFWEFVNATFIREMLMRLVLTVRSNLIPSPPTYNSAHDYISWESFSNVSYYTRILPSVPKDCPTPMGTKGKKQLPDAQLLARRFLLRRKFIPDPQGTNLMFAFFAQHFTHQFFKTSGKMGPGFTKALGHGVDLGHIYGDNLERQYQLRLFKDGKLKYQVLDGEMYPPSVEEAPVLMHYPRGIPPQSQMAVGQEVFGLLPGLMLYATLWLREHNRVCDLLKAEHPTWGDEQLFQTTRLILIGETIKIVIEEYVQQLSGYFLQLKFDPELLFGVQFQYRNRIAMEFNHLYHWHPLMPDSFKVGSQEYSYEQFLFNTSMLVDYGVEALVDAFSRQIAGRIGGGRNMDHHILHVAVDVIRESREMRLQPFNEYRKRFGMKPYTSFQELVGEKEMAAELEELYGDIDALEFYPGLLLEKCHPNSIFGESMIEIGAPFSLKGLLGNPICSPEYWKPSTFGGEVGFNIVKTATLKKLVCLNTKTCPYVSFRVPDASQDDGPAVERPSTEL

Compound	COX-2 Inhibition (% at 10 μM) (COX-2)	COX-1 Inhibition (% at 100 μM) (COX-1)	COX-1 Inhibition (% at 30 μM) (COX-1; test compound at 30 μM)
1-(7-((3,5-Difluorophenyl)methyl)-2-((nitrooxy)methyl)(2H, 3H-benzo(3,4-e)1, 4-dioxin-6-yl))-4-(methylsulfonyl)benzene and 1-(7-((3,5-difluorophenyl)methyl)-3-((nitrooxy)methyl)(2H, 3H-benzo(e)1,4-dioxin-6-yl))-4-(methylsulfonyl)benzene [Example 19b]	35%	65%	–
1-(7-((3,5-Difluorophenyl)methyl)-2-(hydroxymethyl)(2H, 3H-benzo(3,4-e)1,4-dioxin-6-yl))-4-(methylsulfonyl)benzene and 1-(7-((3,5-difluorophenyl)methyl)-3-(hydroxymethyl)(2H, 3H-benzo(e)1,4-dioxin-6-yl))-4-(methylsulfonyl)benzene [Example 19a]	15%	45%	–
CS(=O)(=O)c1ccc(-c2cc3c(cc2C(=O)C2CCCCC2)OCO3)cc1 [Example 2c, Cyclohexyl 6-(4-(methylsulfonyl)phenyl)(2H-benzo(d)1,3-dioxolan-5-yl) ketone]	85%	–	70 (at 30 μM) %
CS(=O)(=O)c1ccc(-c2cc3c(cc2Cc2ccccc2)OCO3)cc1 [Example 3c, 4-(Methylsulfonyl)-1-(6-benzyl(2H-benzo(3,4-d)1,3-dioxolan-5-yl))benzene]	50%	65%	–
CS(=O)(=O)c1ccc(-c2cc3c(cc2Cc2ccccc2F)OCO3)cc1 [Example 4c, 1-(6-((2-Fluorophenyl)methyl)(2H-benzo(3,4-d)1,3-dioxolan-5-yl))-4-(methylsulfonyl)benzene]	60%	70%	–
CS(=O)(=O)c1ccc(-c2cc3c(cc2C(=O)c2ccccc2F)OCO3)cc1 [Example 4d, 2-Fluorophenyl 6-(4-(methylsulfonyl)phenyl)(2H-benzo(d)1,3-dioxolan-5-yl) ketone]	90%	70%	–
CS(=O)(=O)c1ccc(-c2cc3c(cc2Cc2cccc(F)c2)OCO3)cc1 [Example 5c, 1-(6-((3-Fluorophenyl)methyl)(2H-benzo(3,4-d)1,3-dioxolan-5-yl))-4-(methylsulfonyl)benzene]	90%	55%	–
CS(=O)(=O)c1ccc(-c2cc3c(cc2C(=O)c2cccc(F)c2)OCO3)cc1 [Example 5d, 3-Fluorophenyl 6-(4-(methylsulfonyl)phenyl)(2H-benzo(d)1,3-dioxolan-5-yl) ketone]	95%	70%	–
CCOC(=O)/C(C)=C/c1cc2c(cc1-c1ccc(S(C)(=O)=O)cc1)OCO2 [Example 7d, Ethyl (2E)-2-methyl-3-(6-(4-(methylsulfonyl)phenyl)(2H-benzo(d)1,3-dioxolan-5-yl))prop-2-enoate]	35%	5%	–
C/C(=C\c1cc2c(cc1-c1ccc(S(C)(=O)=O)cc1)OCO2)CO [Example 7e, 1-(6-((1E)-3-Hydroxy-2-methylprop-1-enyl)(2H-benzo(3,4-d)1,3-dioxolan-5-yl))-4-(methylsulfonyl)benzene]	10%	20%	–
CS(=O)(=O)c1ccc(-c2cc3c(cc2CC2CCCCCC2)OCO3)cc1 [Example 11c, 4-(6-(Cycloheptylmethyl)(2H-benzo(3,4-d)1,3-dioxolan-5-yl))-1-(methylsulfonyl)benzene]	80%	40%	–
Cc1cccc(C(=O)c2cc3c(cc2-c2ccc(S(C)(=O)=O)cc2)OCO3)c1 [Example 12c, 3-Methylphenyl 6-(4-(methylsulfonyl)phenyl)(2H-benzo(d)1,3-dioxolan-5-yl)ketone]	90%	90%	–
CS(=O)(=O)c1ccc(-c2cc3c(cc2C(=O)c2cccc(CO[N+](=O)[O-])c2)OCO3)cc1 [Example 12d, 6-(4-(methylsulfonyl)phenyl)(2H-benzo(d)1,3-dioxolan-5-yl)3-((nitrooxy)methyl)phenylketone]	20%	20%	–
COc1cccc(C(=O)c2cc3c(cc2-c2ccc(S(C)(=O)=O)cc2)OCO3)c1 [Example 13c, 3-Methoxyphenyl-6-(4-(methylsulfonyl)phenyl)(2H-benzo(d)1,3-dioxolan-5-yl) ketone]	75%	90%	–
Cc1ccc(F)c(C(=O)c2cc3c(cc2-c2ccc(S(C)(=O)=O)cc2)OCO3)c1 [Example 14c, 2-Fluoro-5-methylphenyl6-(4-(methylsulfonyl)phenyl)(2H-benzo(d)1,3-dioxolan-5-yl)ketone]	75%	90%	–
CS(=O)(=O)c1ccc(-c2cc3c(cc2C(=O)c2cc(F)cc(F)c2)OCO3)cc1 [Example 16, 4-(1-(3′,5′-Difluorophenyl)-1-oxomethyl)-1,2-methylenedioxy-5-(4-methylsulfonylphenyl)benzene]	100%	50%	–
